Measured values: patent publication US20040204475A1, “Pharmaceutical combination” (priority 2003, published 2004)
Where two headings read alike, the source gives them in different places.

Key:
[1] = 30 mg eletriptan, fasted, cited from earlier work
[2] = α-polymorphic hydrobromide salt, oral, cited from earlier work
[3] = Time lag between oral administration and maximal plasma levels, eletriptan in combination with sodium bicarbonate; format: in vivo; conditions: administered in combination with sodium bicarbonate, in some cases
Excerpt: The advantage to the patient arising from the correspondingly swift amelioration of symptoms is self-evident.

[4] = Tablet hardness relative to tablets made from a placebo blend; format: physicochemical; conditions: eletriptan at 2.5% w/w of tablet
Protocol: A mixture of eletriptan hydrobromide (24.24 mg, equivalent to 20 mg of eletriptan free base), sodium bicarbonate (USP, 630 mg) and microcrystalline cellulose (Avicel PH 102, Ph. Eur., 137.76 mg) were blended for 10 minutes, passed through a […] screen and re-blended for a further 10 minutes. Screened intragranular magnesium stearate (Ph. Eur., 8 mg) was added and the mixture was lubricated for 5 minutes. […] The blend was made into a tablet by direct compression. The tablets so produced had excellent weight uniformity and friability.

time lag between oral administration and maximal plasma levels of drug [3]: 30 min
increase in tablet hardness [4]: 0.7 kp
SMILES: CN1CCC[C@@H]1Cc1c[nH]c2ccc(CCS(=O)(=O)c3ccccc3)cc12 [eletriptan, 3-{[1-methylpyrrolidin-2(R)-yl]methyl}-5-(2-phenylsulfonylethyl)-1H-indole]
Tmax ([1]; migraine-free patients): 1.3 ± 1.3 h
Tmax ([1]; patients with migraine): 2.8 ± 2.1 h
Tmax (time between administering a standard tablet and maximal plasma concentrations) ([2]; fasted subjects): about 1 hour
Tmax (time between administering a standard tablet and maximal plasma concentrations) ([2]; fed subjects): up to 4 hours
